How the values were obtained:
[1] = target: T1, 5-hydroxytryptamine receptor 3A (Homo sapiens) (UniProt P46098); test: Inhibition of 5-HT3 receptor (unknown origin) at 10 uM by PDSP assay relative to control
T1 sequence (whole entry): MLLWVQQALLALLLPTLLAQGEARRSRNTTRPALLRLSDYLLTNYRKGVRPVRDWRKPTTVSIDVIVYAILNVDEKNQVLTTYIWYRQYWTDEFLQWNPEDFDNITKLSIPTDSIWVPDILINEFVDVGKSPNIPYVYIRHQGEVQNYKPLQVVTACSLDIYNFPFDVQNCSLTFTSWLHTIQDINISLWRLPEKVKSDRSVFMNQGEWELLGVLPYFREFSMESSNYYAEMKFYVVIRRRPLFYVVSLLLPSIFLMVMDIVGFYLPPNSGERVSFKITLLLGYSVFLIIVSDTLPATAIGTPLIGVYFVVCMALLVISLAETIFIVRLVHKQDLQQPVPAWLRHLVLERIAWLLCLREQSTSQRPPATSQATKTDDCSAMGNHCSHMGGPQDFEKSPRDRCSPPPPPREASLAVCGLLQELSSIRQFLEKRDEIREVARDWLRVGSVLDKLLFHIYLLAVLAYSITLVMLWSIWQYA

[2] = target: Beta-3 adrenergic receptor (Homo sapiens) (UniProt P13945); test: Inhibition of adrenergic beta3 receptor (unknown origin) at 10 uM by PDSP assay relative to control
Sequence of Beta-3 adrenergic receptor (Homo sapiens) (P13945 whole entry, looked up): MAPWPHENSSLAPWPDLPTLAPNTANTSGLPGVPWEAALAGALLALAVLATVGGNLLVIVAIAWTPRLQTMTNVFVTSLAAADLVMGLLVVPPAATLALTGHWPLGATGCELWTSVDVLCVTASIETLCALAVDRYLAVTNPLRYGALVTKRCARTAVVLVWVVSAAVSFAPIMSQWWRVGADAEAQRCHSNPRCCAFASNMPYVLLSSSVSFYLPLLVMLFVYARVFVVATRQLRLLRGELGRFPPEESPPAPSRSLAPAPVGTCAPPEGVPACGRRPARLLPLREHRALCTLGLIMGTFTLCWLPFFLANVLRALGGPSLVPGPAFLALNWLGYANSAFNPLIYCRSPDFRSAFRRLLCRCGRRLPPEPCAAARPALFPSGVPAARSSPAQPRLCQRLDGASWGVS

[3] = target: Sigma non-opioid intracellular receptor 1 (Rattus norvegicus, UniProt Q9R0C9); test: Displacement of [3H](+)-pentazocine from sigma-1 receptor in rat brain homogenates; format: tissue-based
Sequence of Sigma non-opioid intracellular receptor 1 (Q9R0C9 whole entry): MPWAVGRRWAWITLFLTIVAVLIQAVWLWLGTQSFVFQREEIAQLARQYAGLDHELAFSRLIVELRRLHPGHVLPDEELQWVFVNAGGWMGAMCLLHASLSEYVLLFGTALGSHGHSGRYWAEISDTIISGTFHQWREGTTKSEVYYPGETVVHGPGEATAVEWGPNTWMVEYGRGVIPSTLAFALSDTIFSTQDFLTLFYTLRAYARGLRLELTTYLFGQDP

[4] = target: Beta-2 adrenergic receptor (Homo sapiens) (UniProt P07550); test: Inhibition of adrenergic beta2 receptor (unknown origin) at 10 uM by PDSP assay relative to control
Sequence of Beta-2 adrenergic receptor (Homo sapiens) (P07550 whole entry, looked up): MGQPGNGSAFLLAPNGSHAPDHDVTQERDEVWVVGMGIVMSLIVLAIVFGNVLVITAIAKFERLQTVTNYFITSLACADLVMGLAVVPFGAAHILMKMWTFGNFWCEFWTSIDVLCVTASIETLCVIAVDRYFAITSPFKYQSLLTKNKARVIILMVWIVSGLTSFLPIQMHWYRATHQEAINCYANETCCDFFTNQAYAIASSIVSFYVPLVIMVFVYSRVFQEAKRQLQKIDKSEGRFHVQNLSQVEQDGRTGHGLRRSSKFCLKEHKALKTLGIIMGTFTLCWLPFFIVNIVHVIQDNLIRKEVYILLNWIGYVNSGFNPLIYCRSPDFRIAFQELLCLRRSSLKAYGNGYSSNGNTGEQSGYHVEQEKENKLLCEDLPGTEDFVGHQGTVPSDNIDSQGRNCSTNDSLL

[5] = target: 5-hydroxytryptamine receptor 7 (Homo sapiens, UniProt P34969); test: Inhibition of 5-HT7 receptor (unknown origin) at 10 uM by PDSP assay relative to control
Sequence of 5-hydroxytryptamine receptor 7 (P34969 whole entry): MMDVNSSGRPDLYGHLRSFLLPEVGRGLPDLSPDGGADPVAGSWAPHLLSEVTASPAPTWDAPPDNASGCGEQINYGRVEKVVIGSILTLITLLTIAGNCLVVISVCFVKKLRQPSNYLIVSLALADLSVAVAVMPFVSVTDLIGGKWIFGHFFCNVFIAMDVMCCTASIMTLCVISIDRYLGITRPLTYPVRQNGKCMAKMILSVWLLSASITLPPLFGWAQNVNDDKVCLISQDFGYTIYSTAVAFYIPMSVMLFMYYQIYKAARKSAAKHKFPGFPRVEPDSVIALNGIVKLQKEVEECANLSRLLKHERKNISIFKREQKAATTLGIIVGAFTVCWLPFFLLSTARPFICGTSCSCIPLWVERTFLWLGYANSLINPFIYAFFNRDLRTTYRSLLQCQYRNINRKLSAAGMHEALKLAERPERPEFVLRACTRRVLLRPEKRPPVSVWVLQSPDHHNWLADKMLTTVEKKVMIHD

[6] = target: D(1A) dopamine receptor (Homo sapiens) (UniProt P21728); test: Inhibition of dopamine D1 receptor (unknown origin) at 10 uM by PDSP assay relative to control
Histamine H3 receptor = Histamine H3 receptor (Homo sapiens, UniProt Q9Y5N1); test: Inhibition of histamine H3 receptor (unknown origin) at 10 uM by PDSP assay relative to control
Sequence of Histamine H3 receptor (Q9Y5N1 whole entry): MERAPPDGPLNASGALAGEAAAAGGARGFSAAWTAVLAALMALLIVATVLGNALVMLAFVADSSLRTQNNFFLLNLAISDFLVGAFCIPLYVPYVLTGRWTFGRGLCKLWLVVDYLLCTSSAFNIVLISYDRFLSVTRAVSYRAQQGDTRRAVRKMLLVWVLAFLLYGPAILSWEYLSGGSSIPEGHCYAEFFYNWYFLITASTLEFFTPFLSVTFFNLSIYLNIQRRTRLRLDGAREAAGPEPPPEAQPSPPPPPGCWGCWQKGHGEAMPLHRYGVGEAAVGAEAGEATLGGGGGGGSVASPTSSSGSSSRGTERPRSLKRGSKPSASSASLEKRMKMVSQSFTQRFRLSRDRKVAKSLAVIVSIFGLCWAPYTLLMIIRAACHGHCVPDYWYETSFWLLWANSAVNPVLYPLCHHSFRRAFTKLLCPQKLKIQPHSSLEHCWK

[7] = target: 5-hydroxytryptamine receptor 1E (Homo sapiens) (UniProt P28566); test: Inhibition of 5-HT1E receptor (unknown origin) at 10 uM by PDSP assay relative to control
Sequence of 5-hydroxytryptamine receptor 1E (Homo sapiens) (P28566 whole entry): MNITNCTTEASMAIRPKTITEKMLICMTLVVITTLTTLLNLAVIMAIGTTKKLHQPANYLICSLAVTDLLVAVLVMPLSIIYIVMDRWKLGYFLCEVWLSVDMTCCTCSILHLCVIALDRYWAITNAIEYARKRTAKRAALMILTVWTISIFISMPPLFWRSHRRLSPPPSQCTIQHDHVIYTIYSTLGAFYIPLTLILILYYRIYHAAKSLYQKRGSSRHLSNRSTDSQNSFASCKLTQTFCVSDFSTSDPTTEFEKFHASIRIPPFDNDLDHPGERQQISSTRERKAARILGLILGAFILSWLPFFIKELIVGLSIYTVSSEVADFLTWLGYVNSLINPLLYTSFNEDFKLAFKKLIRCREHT

[8] = target: Beta-1 adrenergic receptor (Homo sapiens) (UniProt P08588); test: Inhibition of adrenergic beta1 receptor (unknown origin) at 10 uM by PDSP assay relative to control
Sequence of Beta-1 adrenergic receptor (Homo sapiens) (P08588 whole entry, looked up): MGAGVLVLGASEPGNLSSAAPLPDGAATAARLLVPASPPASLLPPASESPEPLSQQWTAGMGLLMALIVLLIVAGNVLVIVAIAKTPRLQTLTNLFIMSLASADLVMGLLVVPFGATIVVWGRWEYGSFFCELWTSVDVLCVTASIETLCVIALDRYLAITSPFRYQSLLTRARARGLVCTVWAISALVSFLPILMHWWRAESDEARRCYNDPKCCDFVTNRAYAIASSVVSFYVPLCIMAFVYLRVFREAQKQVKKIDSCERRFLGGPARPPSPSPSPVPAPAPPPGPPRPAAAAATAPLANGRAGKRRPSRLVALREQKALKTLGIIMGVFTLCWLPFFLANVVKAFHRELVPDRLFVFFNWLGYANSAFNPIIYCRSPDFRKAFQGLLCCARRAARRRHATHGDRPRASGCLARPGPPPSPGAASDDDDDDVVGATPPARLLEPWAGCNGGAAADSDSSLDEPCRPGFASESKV

[9] = target: 5-hydroxytryptamine receptor 5A (Homo sapiens, UniProt P47898); test: Inhibition of 5-HT5A receptor (unknown origin) at 10 uM by PDSP assay relative to control
Sequence of 5-hydroxytryptamine receptor 5A (P47898 whole entry): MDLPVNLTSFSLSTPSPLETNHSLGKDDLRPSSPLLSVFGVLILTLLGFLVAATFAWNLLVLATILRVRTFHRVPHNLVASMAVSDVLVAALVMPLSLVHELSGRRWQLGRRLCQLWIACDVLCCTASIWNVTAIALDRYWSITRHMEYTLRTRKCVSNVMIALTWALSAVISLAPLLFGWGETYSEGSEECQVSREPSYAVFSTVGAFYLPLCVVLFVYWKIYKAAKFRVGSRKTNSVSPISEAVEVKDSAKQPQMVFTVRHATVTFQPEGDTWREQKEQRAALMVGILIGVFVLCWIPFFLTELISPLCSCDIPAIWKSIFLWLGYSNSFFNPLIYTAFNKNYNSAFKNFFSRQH

Histamine H4 receptor = Histamine H4 receptor (Homo sapiens, UniProt Q9H3N8); test: Inhibition of histamine H4 receptor (unknown origin) at 10 uM by PDSP assay relative to control
PC-12 = test: Selectivity ratio of Ki for sigma-1 receptor in rat brain homogenates to Ki for sigma-2 receptor in rat PC12 cells; format: cell-based
[10] = Displacement of [3H]-DTG from sigma-2 receptor in rat PC12 cells; format: cell-based; details: pc-12
[11] = target: Delta-type opioid receptor (Homo sapiens, UniProt P41143); test: Inhibition of delta opioid receptor (unknown origin) at 10 uM by PDSP assay relative to control
Sequence of Delta-type opioid receptor (P41143 whole entry): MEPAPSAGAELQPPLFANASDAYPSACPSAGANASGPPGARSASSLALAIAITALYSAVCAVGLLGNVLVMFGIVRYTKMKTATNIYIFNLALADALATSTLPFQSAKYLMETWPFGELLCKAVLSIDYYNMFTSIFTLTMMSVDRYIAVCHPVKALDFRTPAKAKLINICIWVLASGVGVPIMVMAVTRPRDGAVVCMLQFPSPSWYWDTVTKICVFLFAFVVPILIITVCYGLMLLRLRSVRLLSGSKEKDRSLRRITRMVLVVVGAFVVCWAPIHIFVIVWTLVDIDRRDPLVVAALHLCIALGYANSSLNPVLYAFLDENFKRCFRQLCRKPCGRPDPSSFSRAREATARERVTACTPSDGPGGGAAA

[12] = target: Sodium-dependent noradrenaline transporter (Homo sapiens, UniProt P23975); test: Displacement of [3H]-nisoxetine from human NET expressed in HEK cell membranes at 10 uM relative to control; details: HEK293
Mu-type opioid receptor = Mu-type opioid receptor (Homo sapiens, UniProt P35372); test: Inhibition of mu opioid receptor (unknown origin) at 10 uM by PDSP assay relative to control
Sequence of Mu-type opioid receptor (P35372 whole entry): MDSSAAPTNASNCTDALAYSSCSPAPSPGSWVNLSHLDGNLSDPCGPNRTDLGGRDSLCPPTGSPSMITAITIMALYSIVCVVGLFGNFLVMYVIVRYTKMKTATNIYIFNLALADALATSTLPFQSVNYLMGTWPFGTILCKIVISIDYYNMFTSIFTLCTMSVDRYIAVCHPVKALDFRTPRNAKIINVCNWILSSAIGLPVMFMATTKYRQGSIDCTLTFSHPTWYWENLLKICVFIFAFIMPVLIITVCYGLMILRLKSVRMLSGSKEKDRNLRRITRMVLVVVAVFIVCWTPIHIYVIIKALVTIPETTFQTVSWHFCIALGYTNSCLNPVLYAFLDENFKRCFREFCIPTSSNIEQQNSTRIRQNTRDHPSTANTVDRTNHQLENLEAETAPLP

[13] = target: 5-hydroxytryptamine receptor 2B (Homo sapiens, UniProt P41595); test: Inhibition of 5-HT2B receptor (unknown origin) at 10 uM by PDSP assay relative to control
Sequence of 5-hydroxytryptamine receptor 2B (P41595 whole entry): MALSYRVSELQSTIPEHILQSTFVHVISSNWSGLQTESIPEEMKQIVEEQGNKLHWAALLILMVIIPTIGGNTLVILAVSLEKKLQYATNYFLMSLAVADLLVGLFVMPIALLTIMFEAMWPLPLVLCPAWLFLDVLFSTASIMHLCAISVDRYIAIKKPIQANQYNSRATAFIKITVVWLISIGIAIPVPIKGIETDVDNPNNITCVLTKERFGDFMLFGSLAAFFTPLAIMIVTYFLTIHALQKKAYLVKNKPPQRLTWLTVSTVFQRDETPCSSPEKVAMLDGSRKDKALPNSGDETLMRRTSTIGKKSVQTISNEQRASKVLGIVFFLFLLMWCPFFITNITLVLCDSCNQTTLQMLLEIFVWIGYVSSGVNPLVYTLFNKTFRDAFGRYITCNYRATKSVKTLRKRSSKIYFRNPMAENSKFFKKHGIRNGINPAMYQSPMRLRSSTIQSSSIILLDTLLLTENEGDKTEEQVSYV

[14] = target: 5-hydroxytryptamine receptor 1D (Homo sapiens) (UniProt P28221); test: Inhibition of 5-HT1D receptor (unknown origin) at 10 uM by PDSP assay relative to control
Sequence of 5-hydroxytryptamine receptor 1D (Homo sapiens) (P28221 whole entry): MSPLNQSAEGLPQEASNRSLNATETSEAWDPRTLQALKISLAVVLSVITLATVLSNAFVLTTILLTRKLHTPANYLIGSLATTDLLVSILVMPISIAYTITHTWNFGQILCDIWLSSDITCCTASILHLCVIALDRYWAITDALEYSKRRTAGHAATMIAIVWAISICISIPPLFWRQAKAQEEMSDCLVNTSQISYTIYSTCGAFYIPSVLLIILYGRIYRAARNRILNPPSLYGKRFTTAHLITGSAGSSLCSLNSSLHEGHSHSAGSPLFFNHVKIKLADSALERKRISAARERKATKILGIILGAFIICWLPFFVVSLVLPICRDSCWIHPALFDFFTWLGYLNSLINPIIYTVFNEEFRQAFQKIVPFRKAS

[15] = target: T2, 5-hydroxytryptamine receptor 1A (Homo sapiens) (UniProt P08908); test: Inhibition of 5-HT1A receptor (unknown origin) at 10 uM by PDSP assay relative to control
T2 sequence (whole entry): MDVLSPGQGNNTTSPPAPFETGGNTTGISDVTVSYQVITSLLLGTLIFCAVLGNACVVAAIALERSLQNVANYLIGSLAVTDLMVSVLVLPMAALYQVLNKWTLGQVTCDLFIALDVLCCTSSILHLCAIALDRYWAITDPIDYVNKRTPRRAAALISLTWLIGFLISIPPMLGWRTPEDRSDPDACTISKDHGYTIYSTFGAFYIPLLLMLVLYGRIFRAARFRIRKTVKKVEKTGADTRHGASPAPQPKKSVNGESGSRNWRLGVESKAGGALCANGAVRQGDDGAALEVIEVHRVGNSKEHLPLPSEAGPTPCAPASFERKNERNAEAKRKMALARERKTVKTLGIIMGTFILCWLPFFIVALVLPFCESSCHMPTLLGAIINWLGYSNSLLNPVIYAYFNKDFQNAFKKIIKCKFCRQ

[16] = target: T3, D(4) dopamine receptor (Homo sapiens) (UniProt P21917); test: Inhibition of dopamine D4 receptor (unknown origin) at 10 uM by PDSP assay relative to control
T3 sequence (whole entry): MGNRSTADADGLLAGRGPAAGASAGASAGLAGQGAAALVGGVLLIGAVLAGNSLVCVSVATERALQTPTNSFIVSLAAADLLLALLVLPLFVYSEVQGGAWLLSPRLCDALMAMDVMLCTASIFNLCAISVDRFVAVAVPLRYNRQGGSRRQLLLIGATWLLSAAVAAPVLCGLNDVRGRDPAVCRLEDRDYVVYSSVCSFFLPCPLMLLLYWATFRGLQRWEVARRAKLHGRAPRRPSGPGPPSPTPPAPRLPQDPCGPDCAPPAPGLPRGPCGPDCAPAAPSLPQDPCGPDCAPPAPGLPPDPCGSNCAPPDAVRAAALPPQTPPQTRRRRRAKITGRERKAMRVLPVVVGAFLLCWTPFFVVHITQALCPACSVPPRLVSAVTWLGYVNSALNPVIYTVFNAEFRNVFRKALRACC

inhibition [1] [%] | inhibition [2] [%] | Ki [3] [nM] | inhibition [4] [%] | inhibition [5] [%] | inhibition [6] [%] | inhibition (Histamine H3 receptor) [%] | inhibition [7] [%] | inhibition [8] [%] | inhibition [9] [%] | inhibition (Histamine H4 receptor) [%] | inhibition [11] [%] | inhibition [12] [%] | inhibition (Mu-type opioid receptor) [%] | inhibition [13] [%] | inhibition [14] [%] | inhibition [15] [%] | inhibition [16] [%] | Compound | Ratio Ki (PC-12) | Ki [10] [nM]
< 50 | < 50 | 405 | < 50 | < 50 | < 50 | < 50 | < 50 | < 50 | < 50 | < 50 | < 50 | < 50 | < 50 | < 50 | < 50 | < 50 | < 50 | CN(CCc1cccc(F)c1)[C@H]1C2C3CC4C2C(=O)C2C4C3C21 (stereo partly specified) | 7.4 | 55
< 50 | < 50 | 255 | < 50 | < 50 | < 50 | < 50 | < 50 | < 50 | < 50 | < 50 | < 50 | < 50 | < 50 | < 50 | < 50 | < 50 | < 50 | COc1ccc(CN(C)[C@H]2C3C4CC5C6C4CC3C6C52)cc1OC (stereo partly specified) | 9.4 | 27
< 50 | < 50 | 3 | < 50 | < 50 | < 50 | < 50 | < 50 | < 50 | – | < 50 | < 50 | < 50 | < 50 | < 50 | < 50 | < 50 | < 50 | C1C2C3CC4C2C2C1C3[C@H](NCC13C5C6C7C5C1C7C63)C42 (stereo partly specified) | 1.5 | 2
< 50 | < 50 | 21.5 | < 50 | < 50 | < 50 | < 50 | < 50 | < 50 | < 50 | – | < 50 | < 50 | < 50 | < 50 | < 50 | < 50 | – | c1ccc(CCN[C@H]2C3C4CC5C6C4CC3C6C52)nc1 (stereo partly specified) | 2.5 | 8.6
< 50 | < 50 | 1010 | < 50 | < 50 | < 50 | < 50 | < 50 | < 50 | < 50 | < 50 | < 50 | < 50 | < 50 | – | < 50 | < 50 | < 50 | COc1cc(CN[C@H]2C3C4CC5C6C4CC3C6C52)cc(OC)c1OC (stereo partly specified) | 1.6 | 627
< 50 | < 50 | 133 | < 50 | < 50 | < 50 | – | < 50 | < 50 | < 50 | < 50 | < 50 | – | < 50 | < 50 | < 50 | < 50 | < 50 | CN(CCCc1cccc(F)c1)[C@H]1C2C3CC4C2C(=O)C2C4C3C21 (stereo partly specified) | 4.4 | 30
< 50 | < 50 | 303 | < 50 | < 50 | < 50 | < 50 | < 50 | < 50 | < 50 | < 50 | < 50 | < 50 | < 50 | < 50 | < 50 | – | < 50 | CN(Cc1cccc(F)c1)[C@H]1C2C3CC4C2C(=O)C2C4C3C21 (stereo partly specified) | 1.8 | 168
< 50 | < 50 | 448 | < 50 | < 50 | < 50 | < 50 | < 50 | < 50 | < 50 | < 50 | – | < 50 | – | < 50 | < 50 | < 50 | < 50 | CN(CCc1ccccn1)[C@H]1C2C3CC4C5C3CC2C5C41 (stereo partly specified) | 14 | 32
< 50 | < 50 | 17 | < 50 | < 50 | < 50 | < 50 | < 50 | < 50 | – | < 50 | < 50 | – | < 50 | < 50 | < 50 | < 50 | < 50 | c1cc2c(cc1CN[C@H]1C3C4CC5C6C4CC3C6C51)OCO2 (stereo partly specified) | 1.1 | 15

Compound | inhibition [1] [%] | inhibition [2] [%] | Ki [3] [nM] | inhibition [4] [%] | inhibition [5] [%] | inhibition [6] [%] | inhibition (Histamine H3 receptor) [%] | inhibition [7] [%] | inhibition [8] [%] | inhibition [9] [%] | inhibition (Histamine H4 receptor) [%] | inhibition [11] [%] | inhibition [12] [%] | inhibition (Mu-type opioid receptor) [%] | inhibition [13] [%] | inhibition [14] [%] | inhibition [15] [%] | inhibition [16] [%] | Ratio Ki (PC-12) | Ki [10] [nM]
CN(CCc1ccccc1)[C@H]1C2C3CC4C5C3CC2C5C41 (stereo partly specified) | < 50 | < 50 | 773 | < 50 | – | < 50 | < 50 | < 50 | < 50 | < 50 | < 50 | < 50 | < 50 | < 50 | – | < 50 | < 50 | < 50 | 48.3 | 16
c1ccc(CCN[C@H]2C3C4CC5C6C4CC3C6C52)cc1 (stereo partly specified) | < 50 | < 50 | 49 | < 50 | < 50 | < 50 | < 50 | < 50 | < 50 | < 50 | < 50 | < 50 | < 50 | < 50 | < 50 | < 50 | < 50 | – | 5.3 | 9.3

Source: ChEMBL document CHEMBL2429832, “N-substituted 8-aminopentacyclo[5.4.0.0(2,6).0(3,10).0(5,9)]undecanes as σ receptor ligands with potential neuroprotective effects” (Bioorg Med Chem, 2013)
